In the assay the target is HPK1 (Homo sapiens (Human), UniProt Q92918, S171E/T165E). Description: HPK1-FL HTRF Enzymatic Assay (HTRF). The format is biochemical. The conditions noted are these: HPK full length T165E S171E 0.125 nM, ATP 1 mM, Biotin-SLP76 100 nM, read-out: HPK1 Ki (nM), H = HTRF. The procedure, abridged:
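Ki derived from % activity calculated from the TR-FRET 665/620 ratio, using Eu-anti-pSLP76 and SA-XL665 detection added for 60 min. Reaction: compound preincubated 30 min with full-length double-mutant HPK1, then 60 min with Biotin-SLP-76 and 1 mM ATP, pH 7.5 HEPES buffer.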
A general note: Time-resolved FRET reads energy transfer from a long-lived donor to a nearby acceptor.
Sequence of HPK1 (Q92918 whole entry T165E/S171E): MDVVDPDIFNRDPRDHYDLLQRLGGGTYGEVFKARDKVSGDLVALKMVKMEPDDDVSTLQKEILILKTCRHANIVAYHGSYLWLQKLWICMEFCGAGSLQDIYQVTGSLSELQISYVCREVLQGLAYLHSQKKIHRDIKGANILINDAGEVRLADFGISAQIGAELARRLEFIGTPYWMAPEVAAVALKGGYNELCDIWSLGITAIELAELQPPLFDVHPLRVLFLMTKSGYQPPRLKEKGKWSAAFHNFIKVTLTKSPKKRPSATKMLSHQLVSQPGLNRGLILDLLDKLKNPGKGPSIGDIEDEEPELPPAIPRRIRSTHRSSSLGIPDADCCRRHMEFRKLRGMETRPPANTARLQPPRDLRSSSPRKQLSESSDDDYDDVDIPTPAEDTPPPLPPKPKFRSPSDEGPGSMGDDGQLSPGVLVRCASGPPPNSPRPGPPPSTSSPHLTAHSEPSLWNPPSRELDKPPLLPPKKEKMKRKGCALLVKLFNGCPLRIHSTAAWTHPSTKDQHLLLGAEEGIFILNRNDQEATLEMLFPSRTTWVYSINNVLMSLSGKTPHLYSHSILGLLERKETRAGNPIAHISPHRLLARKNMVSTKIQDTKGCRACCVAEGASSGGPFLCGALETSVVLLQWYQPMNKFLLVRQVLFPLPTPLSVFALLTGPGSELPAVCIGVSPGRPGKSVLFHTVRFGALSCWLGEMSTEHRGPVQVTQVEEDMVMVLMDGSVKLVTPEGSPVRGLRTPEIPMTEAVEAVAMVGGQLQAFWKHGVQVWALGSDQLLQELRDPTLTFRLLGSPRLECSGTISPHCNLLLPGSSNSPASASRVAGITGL
As a reminder, the Ki is the equilibrium dissociation constant of an inhibitor or competing ligand from its target. Consider `Cc1c(N)cncc1-c1cc2cc(Nc3cc4n(n3)CC(=O)N(CCO)CC4)ncc2cc1F` [Compound 159, 2-((6-(5-amino-4-methylpyridin-3-yl)-7-fluoroisoquinolin-3-yl)amino)-6-(2-hydroxyethyl)-5,6-dihydro-4H-pyrazolo[1,5-d][1,4]diazepin-7(8H)-one], for which the inhibition constant (Ki) is 0.015 nM.
Consider `Cc1c(-c2cc3cc(Nc4cc5n(n4)CC(=O)NCC5)ncc3cc2F)cnc2c1NCCO2` [Compound 160, 2-((7-fluoro-6-(8-methyl-2,3-dihydro-1H-pyrido[2,3-b][1,4]oxazin-7-yl)isoquinolin-3-yl)amino)-5,6-dihydro-4H-pyrazolo[1,5-d][1,4]diazepin-7(8H)-one], for which the Ki is 0.013 nM.
Regarding `Cc1c(-c2cc3cc(Nc4cc5n(n4)Cc4nccn4CC5)ncc3c(F)c2F)cnc2c1NCCO2` [Compound 161, N-(7,8-difluoro-6-(8-methyl-2,3-dihydro-1H-pyrido[2,3-b][1,4]oxazin-7-yl)isoquinolin-3-yl)-5,6-dihydro-11H-imidazo[1,2-a]pyrazolo[1,5-d][1,4]diazepin-8-amine], the Ki turned out to be 0.014 nM.
The same measure for `Cc1c(-c2cc3cc(Nc4cc5n(n4)CC(=O)N(C)CC5)ncc3cc2F)cnc2c1N(C)CCO2` [Compound 162, 2-((6-(1,8-dimethyl-2,3-dihydro-1H-pyrido[2,3-b][1,4]oxazin-7-yl)-7-fluoroisoquinolin-3-yl)amino)-6-methyl-5,6-dihydro-4H-pyrazolo[1,5-d][1,4]diazepin-7(8H)-one]: 0.43 nM.
The same measure for `Cc1c(N)cncc1-c1cc2cc(Nc3cc4n(n3)Cc3ncc(C)n3CC4)ncc2cc1F` [Compound 163, N-(6-(5-amino-4-methylpyridin-3-yl)-7-fluoroisoquinolin-3-yl)-3-methyl-5,6-dihydro-11H-imidazo[1,2-a]pyrazolo[1,5-d][1,4]diazepin-8-amine]: 0.013 nM; for `Cc1c(N)cncc1-c1cc2cc(Nc3cc4n(n3)CC(=O)N(CCN3CC(F)C3)CC4)ncc2cc1F` [Compound 164, 2-((6-(5-amino-4-methylpyridin-3-yl)-7-fluoroisoquinolin-3-yl)amino)-6-(2-(3-fluoroazetidin-1-yl)ethyl)-5,6-dihydro-4H-pyrazolo[1,5-d][1,4]diazepin-7(8H)-one]: 0.013 nM.
With `Cc1c(N)cncc1-c1cc2cc(Nc3cc4n(n3)CC3=NOC(C)(C)N3CC4)ncc2cc1F` [Compound 166, N-(6-(5-amino-4-methylpyridin-3-yl)-7-fluoroisoquinolin-3-yl)-3,3-dimethyl-5,6-dihydro-3H,11H-[1,2,4]oxadiazolo[4,3-a]pyrazolo[1,5-d][1,4]diazepin-8-amine] the figure was 0.12 nM.
Take `Cc1c(N)cncc1-c1cc(F)c2cnc(Nc3cc4n(n3)Cc3nccn3CC4)cc2c1` [Compound 168, N-(6-(5-amino-4-methylpyridin-3-yl)-8-fluoroisoquinolin-3-yl)-5,6-dihydro-1I1H-imidazo[1,2-a]pyrazolo[1,5-d][1,4]diazepin-8-amine]: the Ki worked out at 0.028 nM.
Turning to `Cc1c(N)cncc1-c1cc2cc(Nc3cc4n(n3)CC(=O)N(C(C)C)CC4)ncc2cc1C#N` [Compound 169, 6-(5-amino-4-methylpyridin-3-yl)-3-((6-isopropyl-7-oxo-5,6,7,8-tetrahydro-4H-pyrazolo[1,5-d][1,4]diazepin-2-yl)amino)isoquinoline-7-carbonitrile], the Ki was determined as 0.39 nM.
As for `CC(=O)Nc1cncc(-c2cc3cc(Nc4cc5n(n4)CC(=O)N(C)CC5)ncc3cc2F)c1C` [Compound 171, N-(5-(7-fluoro-3-((6-methyl-7-oxo-5,6,7,8-tetrahydro-4H-pyrazolo[1,5-d][1,4]diazepin-2-yl)amino)isoquinolin-6-yl)-4-methylpyridin-3-yl)acetamide], the Ki was found to be 1.78 nM.
Regarding `Cc1c(NS(C)(=O)=O)cncc1-c1cc2cc(Nc3cc4n(n3)CC(=O)N(C)CC4)ncc2cc1F` [Compound 172, N-(5-(7-fluoro-3-((6-methyl-7-oxo-5,6,7,8-tetrahydro-4H-pyrazolo[1,5-d][1,4]diazepin-2-yl)amino)isoquinolin-6-yl)-4-methylpyridin-3-yl)methanesulfonamide], the Ki was 0.46 nM.

The record behind these values is patent US12378249B2, “Isoquinoline compounds and uses thereof” (Genentech, Inc., priority 2018, dated 2025).
